Non-standard residues stand in square brackets, D forms with d. Residues, ends and D or L forms follow the SMILES beside them. No end group written: not given here.
What was measured:
Type in all cases: cell-based, Saccharomyces cerevisiae
[1] = test system: S. cerevisiae PB1X-9B(pRS202); assay: Peptide transport assay, accumulation of KLG-[3H]L, PB1X-9B(pRS202)
Experimental: (§1) To determine if S. cerevisiae transformants harboring pOPT1 could accumulate a radiolabeled tetrapeptide, uptake assays were performed with the radiolabeled substrate KLG-[^3H]L SEQ ID NO:7 with cells grown to log phase in SC-Ura with either ammonium sulfate or 0.1% proline as a nitrogen source. […] This higher initial rate can be explained by overexpression due to high copy number or alternatively by the lack of requisite regulatory elements which may be absent in the heterologous host.
Uptake of KLG-[^3H]L SEQ ID NO:7 was determined using a protocol for uptake of dipeptides as described by Basrai et al. (1995) with a few modifications. S. cerevisiae cultures were grown overnight to exponential phase in SC-Ura medium. Cells were harvested by centrifugation, and resuspended in 2% glucose at a cell density of 2×10^8 cells/ml. […] The yeast cells retained on the filter were washed twice with ice-cold distilled water, once with room temperature distilled water, and the residual radioactivity was measured by liquid scintillation. […] The uptake results, calculated on the basis of 50% counting efficiency (determined using L-[^3H]lysine as a standard, and the specific activity of the peptide), were expressed as nmol of peptide uptake per minute per mg cell dry weight.

[2] = test system: S. cerevisiae PB1X-9B(pOPT1); assay: Peptide transport assay, accumulation of KLG-[3H]L, PB1X-9B(pOPT1)
Experimental: as §1
Uptake of KLG-[^3H]L SEQ ID NO:7 was determined using a protocol for uptake of dipeptides as described by Basrai et al. (1995) with a few modifications. S. cerevisiae cultures were grown overnight to exponential phase in SC-Ura medium. Cells were harvested by centrifugation, and resuspended in 2% glucose at a cell density of 2×10^8 cells/ml. Two hundred and fifty microliters of cell suspension were added to an equal volume of an uptake assay reaction mixture and incubated at 30iC. The final concentrations of the components in the uptake assay solution were: glucose (2%, w/v), 10 mM sodium citrate/potassium phosphate buffer (pH 5.0), and KLG-[^3H]L SEQ ID NO:7 (150 μM; 8.5 mCi/mmol). Competition experiments were done in the presence of either 1.5 mM L, KL, KLG, KLLG SEQ ID NO:6, or KLLLG SEQ ID NO:8. At various time points, 90 μl portions were removed and filtered through a membrane. The yeast cells retained on the filter were washed twice with ice-cold distilled water, once with room temperature distilled water, and the residual radioactivity was measured by liquid scintillation. There was no peptide adsorption to the cell surface or sticking to filters since at 0i C the counts were at background level. The uptake results, calculated on the basis of 50% counting efficiency (determined using L-[^3H]lysine as a standard, and the specific activity of the peptide), were expressed as nmol of peptide uptake per minute per mg cell dry weight.

S. cerevisiae PB1X-9B = assay: Sensitivity of untransformed S. cerevisiae PB1X-9B to ethionine and ethionine peptides
Experimental: (§2) S. cerevisiae PB1X-9B is sensitive to the toxic amino acid ethionine Eth) but is resistant to ethionine containing di-, tri-, tetra-, and pentapeptides. Disk sensitivity assays was utilized to determine if cells transformed with pOPT1 were sensitive to toxic peptides and whether this sensitivity was dependent upon nitrogen source.
Sensitivity to ethionine, a toxic methionine analog, and ethionine-containing peptides was determined by the method described by Island et al. (1987). Cells were grown overnight to exponential phase of growth in SC, washed, and resuspended at 5×10^6 cells /ml in sterile water. One ml of this cell suspension was added to 3 ml molten Noble agar (0.8% final concentration) and overlayed on 20 ml of the same medium used to prepare the inoculum. A disk (6 mm diameter, Difco) was placed on the plate and 0.38 μmoles of the compounds to be tested were applied to the disks. Zones of inhibition were measured after 24-48 hr incubation at 30 iC. Each test comprised at least three independent assays and the results represented in the Tables are means of the values obtained. Maximum variation between the zones of inhibition measured for each test were ^23 mm. A value of 7 mm for the diameter of zone of inhibition represents a minimal growth inhibition value as the disk diameter was 6 mm. […]

[3] = test system: S. cerevisiae PB1X-9B(pOPT1); details: ammonium sulfate as nitrogen source; 0.38 μmoles per 6 mm disk; 24-48 hr
Experimental: as §2
Sensitivity to ethionine, a toxic methionine analog, and ethionine-containing peptides was determined by the method described by Island et al. (1987). Cells were grown overnight to exponential phase of growth in SC, washed, and resuspended at 5×10^6 cells /ml in sterile water. One ml of this cell suspension was added to 3 ml molten Noble agar (0.8% final concentration) and overlayed on 20 ml of the same medium used to prepare the inoculum. A disk (6 mm diameter, Difco) was placed on the plate and 0.38 μmoles of the compounds to be tested were applied to the disks. Zones of inhibition were measured after 24-48 hr incubation at 30 iC. Each test comprised at least three independent assays and the results represented in the Tables are means of the values obtained. Maximum variation between the zones of inhibition measured for each test were ^23 mm. A value of 7 mm for the diameter of zone of inhibition represents a minimal growth inhibition value as the disk diameter was 6 mm. Photodocumentation of sensitivity assays was done with a Umax Scanner and processed through Adobe Photoshop.

[4] = cells grown in SC with ammonium sulfate, 150 μM substrate

CC(C)C[C@H](NC(=O)CNC(=O)[C@H](CC(C)C)NC(=O)[C@@H](N)CCCCN)C(=O)O [KLGL, Lysyl-Leucyl-Glycyl-Leucine] (H-KLGL-OH)
accumulation of tetrapeptide ([1]; cells grown in SC-Ura with 0.1% proline): did accumulate

Lys-Leu-Gly-[^3H]Leu (KLG[3H‑Leu]) [KLG-[^3H]L]
uptake rate of KLG-[3H]L, no competitor ([2]; SC-Ura with ammonium sulfate, 150 μM substrate, best fit of slope over 12 min): 0.24 nm/min/mg of dry weight | initial rate of uptake compared to C. albicans SC5314 ([2]; both grown in SC with ammonium sulfate): higher initial rate of uptake | uptake rate of radiolabeled tetrapeptide [2, 4]: significant uptake rate | initial uptake rate, PB1X-9B(pOPT1) relative to PB1X-9B(pRS202) ([2]; growth media with proline as nitrogen source): 2.5 times | uptake of radiolabeled tetrapeptide [1, 4]: no uptake

CCSCC[C@H](N)C(=O)O [ethionine, Ethionine]
sensitivity / resistance of the strain (S. cerevisiae PB1X-9B): sensitive | zone of growth inhibition [3]: 33 mm

Source: patent US6441134B1, “Isolated Candida albicans oligopeptide transporter gene” (The University of Tennessee Research Corporation, dated 2002)
